For the assay, the target named is T1, DEAD-box helicase 3 X-linked (DDX3X) (Homo sapiens, UniProt O00571).
T1 construct: residues 1–580, N-terminal 6His tag
In words: ITC (one-site model); supported by multi-wavelength AUC, ATPase assay (IC50 […]) and RNA unwinding assay (IC50 […]). The class given is binding.

The structures appear in SMILES notation.

As a reminder, the Kd is the constant that tells how readily two partners part at equilibrium. High values mean a looser complex, low ones a tighter complex.

T1 sequence (O00571 1-580): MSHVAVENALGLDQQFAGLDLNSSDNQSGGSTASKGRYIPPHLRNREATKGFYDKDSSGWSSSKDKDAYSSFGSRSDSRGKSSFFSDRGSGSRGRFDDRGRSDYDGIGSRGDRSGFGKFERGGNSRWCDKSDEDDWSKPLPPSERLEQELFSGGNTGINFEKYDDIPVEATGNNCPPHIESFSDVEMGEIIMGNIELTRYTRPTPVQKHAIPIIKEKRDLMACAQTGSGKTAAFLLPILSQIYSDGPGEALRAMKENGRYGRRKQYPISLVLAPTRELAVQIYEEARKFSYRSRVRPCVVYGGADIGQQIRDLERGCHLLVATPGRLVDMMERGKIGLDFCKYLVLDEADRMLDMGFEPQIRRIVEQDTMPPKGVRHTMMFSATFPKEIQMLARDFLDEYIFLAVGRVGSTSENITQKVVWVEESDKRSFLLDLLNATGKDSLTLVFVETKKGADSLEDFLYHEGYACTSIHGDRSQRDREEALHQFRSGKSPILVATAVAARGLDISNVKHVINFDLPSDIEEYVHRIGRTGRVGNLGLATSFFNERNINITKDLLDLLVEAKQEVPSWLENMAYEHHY

`COc1ccc(Cn2cnc3c4ncn(Cc5ccc(OC)cc5)c4nc(=O)nc32)cc1` [RK-33] registered a Kd of 33 µM.

(Values after paper PMC7016805, “RK-33 Is a Broad-Spectrum Antiviral Agent That Targets DEAD-Box RNA Helicase DDX3X” (Cells, 2020).)
